From publication PMC10041537, “Molecular origins of mutational spectra produced by the environmental carcinogen N-nitrosodimethylamine and SN1 chemotherapeutic agents” (NAR Cancer, 2023)
Several values for one entry are separate records, joined by “and”; a condition that tells them apart may be missing. Identical values can stand only once.

What was measured:
gpt reporter gene = format: in vivo, C57BL/6J gptΔ transgenic mice
Experimental: (§1) Most experiments utilized C57BL/6J gptΔ transgenic mice ([49],[50]), a gift from T. Nohmi. Some experiments used RaDR^R/R;gpt^g/g;Mgmt^−/− mice, which were created by crossing RaDR^R/R;gpt^g/gmice ([37]) with Mgmt^−/− mice ([51]). NDMA was synthesized and characterized as previously described ([52]) (Fig. S1). […] The first dose (3.5 mg/kg in 10 μl) was administered at 8 days of age, and the second dose (7 mg/kg in 20 μl) was administered at 15 days of age. Vehicle treated mice were administered equivalent volumes of saline. Mice were euthanized at ten weeks post-injection by CO2 inhalation. Both male and female mice were used in all experimental groups (n = 5) in all mouse experiments.
The gptΔ assay is the technology traditionally used with the gptΔ mouse to probe for small mutations in the 459 bp gpt transgene, of which approximately 160 copies exist in the mouse diploid genome ([50]). The gpt gene, which is not expressed in the mammalian cells, is contained in a λ-EG10 viral cassette that can be recovered ex vivo through a lambda packaging reaction.
The λ-EG10 phage was packaged in vitro from genomic DNA using a Transpack packaging extract (Agilent Technologies) and then transfected into E. coli YG6020 expressing Cre-recombinase, generating a 6.4 kb plasmid carrying the gpt and chloramphenicol acetyltransferase genes. These bacteria were cultured on selective media containing chloramphenicol (25 μg/ml, Sigma-Aldrich) and 6-TG (25 μg/ml, Sigma-Aldrich) or chloramphenicol alone. 6-TG resistance was confirmed by regrowth of colonies on plates containing chloramphenicol and 6-TG. The mutant frequency of each group was calculated (ratio of total 6-TG-resistant colonies to the average of chloramphenicol resistant colonies). The samples were processed and analyzed in a blinded fashion.
In this study, the gptΔ assay was performed on several tissues isolated from the mouse experiments. Specifically, the liver, kidneys, and lungs were collected at ten weeks following the second NDMA injection, flash frozen in liquid nitrogen, and stored at −80°C until analysis. Genomic DNA was extracted from ∼25 mg of liver tissue, one kidney, and whole lungs using the RecoverEase DNA Isolation Kit (Agilent Technologies).

human = tested on: human; parameters: method as in PMID 21141240; conditions: cited from earlier work
mouse genome = assay: Duplex sequencing, high-resolution mutational spectra and pLOGO of liver of NDMA-treated Mgmt−/− mice; format: in vivo
Experimental: as §1
To determine the identity of mutations and the sequence contexts in which they occur, we utilized a form of error-corrected sequencing called duplex sequencing (DS). Previously, we described how DS can be used directly on genomic samples derived from the gptΔ mouse to yield high-resolution mutational spectra in an unbiased (unselected) manner ([49]). Unlike the traditional gptΔ assay, DS evaluates the mutations throughout the entire 6382 bp transgenic region (which contains the gpt gene), without the need for a phenotypic selection. In the present work, 6.4 kb gpt-containing plasmids from gptΔ mouse livers and cell culture were isolated using a Miniprep Kit (Qiagen) following instructions of the manufacturer. Approximately 6 μg of plasmid DNA was diluted in 1× TE buffer-low EDTA, pH 8 (Thermo Scientific), transferred to a microTUBE AFA Fiber Pre-Slit Snap-Cap (Covaris) and sonicated using a Covaris E220 Focused-ultrasonicator. The following program was used to obtain 300–350 bp fragments: peak incident power = 140 W, duty factor = 10%, cycles per burst = 200, treatment time = 80 s, temperature = 4–7°C. DS libraries for gptΔ C57BL/6J mice and MEFs were prepared using the NEBNext Ultra II DNA Library Prep (E7103, NEB) or as described in Chawanthayatham et al. ([49]) and sequenced on a NextSeq500 or NovaSeq 6000 Illumina platform by using a 150 bp paired-end protocol (MIT BioMicro Center). DS libraries for the gptΔ mouse lungs and Mgmt^−/− mice were prepared using an input of 1 μg or 500 ng genomic DNA, respectively, using a TwinStrand Biosciences, Inc. Mouse Mutagenesis Kit according to the manufacturer's protocol. This kit uses probes that hybridize to 20 genomic regions, each 2.4 kb long. The genomic coordinates are provided in Supplementary Table S1. These probes were purposely selected to map in intronic and intergenic regions, to avoid selection bias. The libraries were sequenced on an Illumina NovaSeq 6000 DNA sequencer on an S4 flow cell using a 150 bp paired-end protocol (MIT BioMicro Center).
For each sample, the two fastq files generated by the Illumina sequencer were converted into an unaligned bam file, using Picard Tools. The resulting bam file was processed using UnifiedConsensusMaker.py (version 3.0) as available from the Kennedy Lab at University of Washington (https://github.com/Kennedy-Lab-UW/Duplex-Sequencing). Briefly, this program queries the molecular tags on each read and assembles them into families (strands with the same tag). These are subsequently collapsed into single-strand consensus sequences (SSCS). Then, the software identifies the SSCS corresponding to the complementary strand; these are grouped together as a double-strand consensus sequence (DCS). Unpaired SSCSs were flagged and ignored for the rest of the analysis. Sequence information was accepted only when the information from the two complementary DNA strands was in perfect agreement. The DCSs (as fastq files) were subsequently aligned to the target region (6382 nt in the λ-EG10 genome) using Burrows-Wheeler aligner. Unmapped reads were filtered out. Finally, the properly aligned DCS reads were trimmed (bases 1–8 and 120–137) and collapsed into a pileup file using SamTools. […]

CN(C)N=O [NDMA, N-nitrosodimethylamine]
elevated mutation frequency, kidney (gpt reporter gene; kidney, 10 weeks after neonatal NDMA 10.5 mg/kg total i.p., vs controls): ~2 fold
change in mutant frequencies, kidney, males and females (gpt reporter gene; kidneys vs controls, only males significantly increased (P = 0.0079)): approximate doubling
elevated mutation frequency, liver (gpt reporter gene; liver, 10 weeks after neonatal NDMA 10.5 mg/kg total i.p., vs controls): ~35 fold
increase in mutant frequency, liver, females (gpt reporter gene; livers of females vs controls, 10 weeks post-exposure, P = 0.0079): ~45 fold
increase in mutant frequency, liver, males (gpt reporter gene; livers of males vs controls, 10 weeks post-exposure, P = 0.0079): ~30 fold
elevated mutation frequency, lung (gpt reporter gene; lung, 10 weeks after neonatal NDMA 10.5 mg/kg total i.p., vs controls): ~4 fold and > 4 fold
IARC classification (human): probable (Group 2A) human carcinogen
pLOGO Frequency (%) (mouse genome; A at 1, liver, Mgmt−/− mice): 31.4%
pLOGO Value (log-odds binomial probability) (mouse genome; A at 1, liver, Mgmt−/− mice): 47.10
pLOGO Frequency (%) (mouse genome; A at 2, liver, Mgmt−/− mice): 31.0%
pLOGO Value (log-odds binomial probability) (mouse genome; A at 2, liver, Mgmt−/− mice): 26.02
pLOGO Frequency (%) (mouse genome; A at 3, liver, Mgmt−/− mice): 29.4%
pLOGO Value (log-odds binomial probability) (mouse genome; A at 3, liver, Mgmt−/− mice): 12.99
pLOGO Frequency (%) (mouse genome; A at 5, liver, Mgmt−/− mice): 28.3%
pLOGO Value (log-odds binomial probability) (mouse genome; A at 5, liver, Mgmt−/− mice): 3.94
pLOGO Frequency (%) (mouse genome; A at -1, liver, Mgmt−/− mice): 42.5%
pLOGO Value (log-odds binomial probability) (mouse genome; A at -1, liver, Mgmt−/− mice): 256.46
pLOGO Frequency (%) (mouse genome; A at -2, liver, Mgmt−/− mice): 32.8%
pLOGO Value (log-odds binomial probability) (mouse genome; A at -2, liver, Mgmt−/− mice): 29.44
pLOGO Frequency (%) (mouse genome; A at -3, liver, Mgmt−/− mice): 29.2%
pLOGO Value (log-odds binomial probability) (mouse genome; A at -3, liver, Mgmt−/− mice): 4.17
pLOGO Frequency (%) (mouse genome; C at 2, liver, Mgmt−/− mice): 24.5%
pLOGO Value (log-odds binomial probability) (mouse genome; C at 2, liver, Mgmt−/− mice): 22.44
pLOGO Frequency (%) (mouse genome; G at 4, liver, Mgmt−/− mice): 23.1%
pLOGO Value (log-odds binomial probability) (mouse genome; G at 4, liver, Mgmt−/− mice): 13.22
pLOGO Frequency (%) (mouse genome; G at 5, liver, Mgmt−/− mice): 22.8%
pLOGO Value (log-odds binomial probability) (mouse genome; G at 5, liver, Mgmt−/− mice): 3.76
pLOGO Frequency (%) (mouse genome; G at 6, liver, Mgmt−/− mice): 24.8%
pLOGO Value (log-odds binomial probability) (mouse genome; G at 6, liver, Mgmt−/− mice): 20.10
pLOGO Frequency (%) (mouse genome; G at 7, liver, Mgmt−/− mice): 24.2%
pLOGO Value (log-odds binomial probability) (mouse genome; G at 7, liver, Mgmt−/− mice): 4.88
pLOGO Frequency (%) (mouse genome; G at -1, liver, Mgmt−/− mice): 41.6%
pLOGO Value (log-odds binomial probability) (mouse genome; G at -1, liver, Mgmt−/− mice): 324
pLOGO Frequency (%) (mouse genome; G at -2, liver, Mgmt−/− mice): 24.3%
pLOGO Value (log-odds binomial probability) (mouse genome; G at -2, liver, Mgmt−/− mice): 23.51
pLOGO Frequency (%) (mouse genome; G at -3, liver, Mgmt−/− mice): 22.9%
pLOGO Value (log-odds binomial probability) (mouse genome; G at -3, liver, Mgmt−/− mice): 4.27
pLOGO Frequency (%) (mouse genome; G at -4, liver, Mgmt−/− mice): 22.6%
pLOGO Value (log-odds binomial probability) (mouse genome; G at -4, liver, Mgmt−/− mice): 5.86
pLOGO Frequency (%) (mouse genome; G at -5, liver, Mgmt−/− mice): 22.8%
pLOGO Value (log-odds binomial probability) (mouse genome; G at -5, liver, Mgmt−/− mice): 4.67
pLOGO Frequency (%) (mouse genome; G at -6, liver, Mgmt−/− mice): 23.9%
pLOGO Value (log-odds binomial probability) (mouse genome; G at -6, liver, Mgmt−/− mice): 4.72
AT→GC mutations, proportion of mutations (mouse genome; Mgmt−/− mice): 1.7%
pLOGO Frequency (%) (mouse genome; T at -2, liver, Mgmt−/− mice): 24.7%
pLOGO Value (log-odds binomial probability) (mouse genome; T at -2, liver, Mgmt−/− mice): 9.33
sequence context of GC→AT mutations (mouse genome; liver of Mgmt−/− mice): 5’-PuGN-3’
dominant single-base substitution (mouse genome; liver of Mgmt−/− mice, 10 weeks post NDMA): GC→AT mutations
cosine similarity of mutational patterns in Mgmt−/− and WT mice (mouse genome; liver, baseline-corrected, normalized spectra): 0.98
